{"source": "patent US20170224833A1", "about": "“SELF-ASSEMBLING MOLECULES THAT ACCUMULATE IN ACIDIC TUMOR MICROENVIRONMENTS” (OHIO STATE INNOVATION FOUNDATION, priority 2014, published 2017)", "key": {"[1]": {"assay": "MRI r1 relaxivity measurement, 1.5 Tesla", "assay_type": "physicochemical", "details": "500 μM, 1.5 T", "experimental": "An MR relaxometry phantom was built by fixing 5 mm NMR sample tubes containing PA samples at a concentration of 500 μM and pH values 4 and 10 in a 600 ml beaker filled with deionized water. The samples also contained 150 mM NaCl and 2.2 mM CaCl2. The phantom was scanned on a 1.5 Tesla Signa Excite MRI scanner using an 8-channel phased-array head coil (GE Healthcare, Milwaukee, Wis., USA). R relaxometry data were acquired using an Inversion Recovery Fast Spin-Echo (IR-FSE) sequence with the following parameters: inversion time TI=50/100/200/400/600/800/1200/1600/3200 ms; repetition time TR=8000 ms; echo time TE=11 ms; echo train length=10; 90° flip angle; 100×100 mm^2 field-of-view (FOV); 0.5 mm in-plane resolution; 2 mm slice thickness; single coronal slice placed at the center of the phantom. Sample longitudinal relaxation rates (R1) were calculated by fitting the MR signal intensities observed at different TIs (S(TI)) to a three parameter model [Lu et al., MRM 2004]:\nS(TI)=|S0×(1−C×exp(−TI×R1))|\nWhere S0 is the equilibrium signal, C is a constant accounting for imperfect inversion of magnetization. The r1 relaxivity was calculated as the slope in the linear relationship between sample concentrations and their R1 relaxation rates."}, "[2]": {"details": "150 mM NaCl, 2.2 mM CaCl2; previously found (Ghosh 2012); cited from earlier work"}}, "note": "*: point of attachment. Palmitoyl = CCCCCCCCCCCCCCCC(=O)*", "data": [{"substance": "Palmitoyl-IAAAEEEEK(DO3A:Gd)-NH2 (Palmitoyl-IAAAEEEEK(DO3A)-NH2; also: DO3A chelates Gd) [PA5]", "values": [{"measurement": "relaxivity of water protons", "setting": "[1]; pH 4 (nanofibers)", "result": 8.3, "unit": "mM⁻¹ s⁻¹"}, {"measurement": "relaxivity of water protons", "setting": "[1]; pH 10 (spherical micelles)", "result": 6.6, "unit": "mM⁻¹ s⁻¹"}, {"measurement": "pH of concentration independent transition from spherical micelles to nanofibers", "setting": "[2]", "result": 6.0}]}]}
